Test results reported in a melting point compilation (Tetko et al.; mined from patent text by program, amines drawn as free bases though some values may be those of a salt).

Row | Structure (SMILES) | melting point [°C]
1 | NC(=O)c1c(NC(=O)C2CC2)sc2c1CCCC2=O | 203 to 205
2 | CSc1nc(NC2CCCC2)c2ccnc-2[nH]1 | 190 to 191
3 | Cc1ncc2c(n1)-c1ccccc1C2(Cc1ccnc(F)c1)Cc1ccnc(F)c1 | 114 to 115
4 | O=S1(=O)N=Cc2ccccc2O1 | 44 to 47
5 | N#CNc1cccc2ccccc12 | 132 to 133
6 | Cc1ccccc1-c1nc(-c2ccccc2C)nc(-c2ccccc2C)n1 | 110
7 | CC(CCC(=O)O)C1CCC2C3C(O)C(F)C4CC(O)CCC4(C)C3CCC12C (stereo unspecified) | 102 to 105
8 | CCOC(=O)Nc1cc(C(=O)N(C)OC)c(Cl)cc1F | 121
9 | Cn1ccc(Nc2n[nH]c3c(OCCc4ccccn4)cc(-c4ncccc4Cl)cc23)n1 | 89 to 91
10 | CC(C)n1nc(-c2sc(NC(=O)C3CC3)nc2-c2ccc(F)cc2)ccc1=O | 250 to 252
11 | COc1cc(OC)nc(NC(=O)NS(=O)(=O)Nc2ccccc2C(O)C2CC2)n1 (stereo unspecified) | 66 to 69
12 | O=C1C(=Cc2ccc(Cl)cc2)Cc2ccccc21 | 174 to 179
13 | Cc1cc(O)c(C(=O)Nc2ccc(S(=O)(=O)C(F)(F)F)cc2Cl)c(C)c1S(C)=O (stereo unspecified) | 205 to 206
14 | COc1ccc2[nH]c(C(=O)c3cc4ccccc4[nH]3)cc2c1 | 112
15 | OCC1CC(O)C(n2cnc3c(-n4cccc4)ncnc32)O1 (stereo unspecified) | 175 to 176
16 | Cc1nc(-c2ccccn2)c2nc(-c3ccccc3)cc-2[nH]1 | 182 to 183
17 | C[C@H]1C(=O)C[C@@H]2C[C@H]1OO[C@]2(C)/C=C\c1ccc(C(F)(F)F)cc1Cl | 160
18 | CCCCCCCCCCCC#Cc1ccc(C=CC(=O)O)cc1 | 156 to 157
19 | CCCc1c(OCCCOc2ccc(O)cc2)ccc2c1OC(CCC(=O)O)(CCC(=O)O)CC2=O | 160 to 166
20 | COC(=O)c1ccc(NCc2cccc(F)c2)cc1 | 107 to 110
21 | COc1ccc(N2CCN(c3c(C)c(C)c4c(c3C)C(N3CCOCC3)C(C)(C)O4)CC2)cc1 (stereo unspecified) | 181 to 182
22 | Cc1nc(N)c(C(N)=S)s1 | 209 to 213
23 | COC(=O)c1cc(O)nn1Cc1ccccc1 | 82 to 84
24 | COc1cc(OC)nc(NC(=O)NS(=O)(=O)c2ccccc2C=O)n1 | 180
25 | CCOC1CC2(C)C(CCC3C4CC=CC4(C)CC(N(C)C)C32)CC1O (stereo unspecified) | 51 to 54
26 | COc1ccc2c(c1)C(=O)N(C)CC(CCCl)O2 (stereo unspecified) | 98 to 100

Row | Structure (SMILES) | melting point [°C]
27 | CCCn1nc2c(N)nc3ccccc3c2c1NCCC1CCN(C(=O)NC(C)C)CC1 | 168 to 170
28 | COc1ccc2c(c1)C(=O)C(=Cc1cccc([N+](=O)[O-])c1)C(C)(C)O2 | 103 to 105
29 | CS(=O)c1ccc(CI)cc1 (stereo unspecified) | 80 to 81
30 | COc1c(C2=NC(C)(C)CO2)ccc(C2=NC(C)(C)CO2)c1OC | 84.5 to 85.5
31 | O=CC(Nc1ccc2c(c1)OCC(=O)N2)N1CCC(Cc2ccccc2)CC1 (stereo unspecified) | 172 to 175
32 | CCCCCCCC(=O)c1c(C(=O)CCCCCCC)c(-c2ccccc2)n(-c2ccc(C)cc2)c1-c1ccccc1 | 51 to 53
33 | COc1ccc(Cn2cc(C)c3ccc(C(=O)c4ccccc4)cc32)cc1 | 146 to 147
34 | CN(C)CCCOc1ccc(-c2nnc(CSCCOc3ccccc3)o2)nc1 | 47 to 49
35 | Cc1cnc2c(c1)S(=O)(=O)N(Cc1ccccc1)C2=O | 167 to 170
36 | O=c1cc(C(F)(F)F)[nH]n1-c1cccc([N+](=O)[O-])c1 | 166
37 | CCOC(=O)CCC1(NC(=O)c2ccc3ccccc3c2)C(=O)N(c2ccccc2)c2cc(OCC)ccc21 (stereo unspecified) | 195 to 196
38 | Cn1cc(C2=C(c3c4n(c5ccccc35)CCC(N=C=S)C4)C(=O)NC2=O)c2ccccc21 (stereo unspecified) | 285 to 287
39 | O=c1ccn(CCCO)c(CO)c1O | 138 to 139
40 | O=C(c1ccccc1)N1CCn2c(CN3CCCCC3)ccc2C1 | 95 to 96
41 | CS(=O)(=O)c1ccc(CC(N)C(O)C(=O)C2(C(=O)NC(CCCNC(=N)N)C(=O)O)CCCC2N)cc1 (stereo unspecified) | 142 to 145
42 | Cn1cccc1C(=O)c1[nH]c2ccc(Cl)cc2c1CC(=O)O | 203 to 205
43 | O=C(O)Cn1cc(C(=O)c2ccn3c2CSC3c2cccnc2)c2ccc(-c3ccc(F)cc3)cc21 (stereo unspecified) | 240 to 249
44 | CN1CCc2cc3ccccc3n2CC1 | 59 to 60
45 | O=C1Oc2cc(O)ccc2CN1C1CCCCC1 | 193 to 196
46 | CN(c1ccc(Cl)cc1)c1nc(=O)c2cccnc2s1 | 189 to 190
47 | CC(=O)NC[C@H]1CN(c2ccc(-c3noc(C#N)n3)c(F)c2)C(=O)O1 | 200 to 202
48 | c1ccc(CN2CCN(c3ccnc4ccccc34)CC2)cc1 | 105 to 106
49 | CC1=CC(c2cccc(C(F)(F)F)c2)C2=C(CCCC2=O)N1 (stereo unspecified) | 184 to 185
50 | O=c1[nH]c2c3ccccc3ccc2n(C2CCCCC2)c1=O | 288
51 | CC(=O)c1noc2cc(OCc3cccc(C(F)(F)F)c3)ccc12 | 130 to 132
52 | Cn1cc(S(=O)(=O)Cl)c(=O)c2ccc(Cl)cc21 | > 300

Row | Structure (SMILES) | melting point [°C]
53 | CCCCCCCCCCCCCCCCCCOc1cc(OC(C)=O)cc(N(CC(=O)O)CC(=O)O)c1 | 122 to 127
54 | O=C1OCc2ccc(CO)cc21 | 107 to 108
55 | O=C(O)C1=CSC2C(=Cc3cn4c(n3)CCCCC4)C(=O)N12 (stereo unspecified) | > 250
56 | Cc1ccc(C2(O)CCC(=O)N2C)cc1S(N)(=O)=O (stereo unspecified) | 124
57 | Cn1c(C(F)(F)F)cc(=O)n(-c2cc(OCc3ccccc3F)c(Cl)cc2F)c1=O | 126 to 128
58 | COc1cccc(S)c1S(N)(=O)=O | 166
59 | O=C1OC(COc2ccc(CCCO)cc2)CN1c1ccc(Cl)cc1 (stereo unspecified) | 119 to 120
60 | COc1ccc(-c2cc(C(=O)NCCCCCCc3ccccc3)cc(-c3cccc(C(F)(F)F)c3)c2OCCO)cc1 | 153 to 159
61 | CC1CC2C3CC(F)C4=CC(=O)C=CC4(C)C3C(O)CC2(C)C1C(=O)COC(=O)CCC(=O)O (stereo unspecified) | 212 to 214
62 | CN(C)C=NC(=S)NC1CCN(C(=O)OC(C)(C)C)CC1 | 170
63 | Nc1ccc(CCC(=O)N(c2ccccc2)c2ccccc2)cc1[N+](=O)[O-] | 189 to 190
64 | Cn1nc(C(F)(F)F)c(CS(=O)(=O)C2=NOC(C)(C)C2)c1OC1CCCC1 | 113 to 114
65 | COc1cc(/C=C/c2cc(OC)c(OC)c(OC)c2)cc(OC)c1OC | 220
66 | C#CCOc1ncc(F)cc1OC | 67 to 69
67 | CCOC(=O)c1c(Cl)nc2ccccc2c1CCl | > 260
68 | COc1ccc(S(=O)(=O)N(CC(N)=O)c2ccc(C)cc2Cc2ccccc2Cl)cc1OC | 141
69 | O=C(O)c1ccc2c(c1)C(=O)c1ccccc1S2(=O)=O | 276
70 | CSc1cc(N)ccc1[N+](=O)[O-] | 178 to 182
71 | COc1ccc(CN2Cc3c(-c4noc(C5CC5)n4)ncn3-c3ccc(Cl)cc3C2=O)c(OC)c1 | 198 to 205
72 | C#Cc1cnc(C2=NC(C)(C(C)C)C(=O)N2)c(C(=O)O)c1 (stereo unspecified) | 190 to 195
73 | CCN(CC)C(=O)c1cc[nH]c1C | 120 to 121
74 | CC(C)c1csc2[nH]c(=O)c(=O)[nH]c12 | > 250
75 | N#Cc1c(-c2ccc(Cl)cc2)c(-c2ccc(Cl)cc2)n[nH]c1=O | 271 to 272
76 | CCOC(=O)c1cc2n(C)c3ccc(OC)cc3c(=O)n2n1 | 249 to 251
77 | Cc1cnc(N2CCc3ccccc3CC2)c([N+](=O)[O-])c1 | 87 to 88
78 | C#CCNC(=O)c1c(Br)cccc1[Si](C)(C)C | 120 to 121

Row | Structure (SMILES) | melting point [°C]
79 | O=c1cc(-c2ccncn2)nc2n1CCOCC2Br (racemic) | 176 to 178
80 | CC1CN(C(=O)COc2cc(-c3ccccc3)nc3ccccc23)CC(C)O1 (stereo unspecified) | 117
81 | Cc1c(C)c2c(c(C)c1OCCc1ccccc1)C(c1ccc(C(C)C)cc1)C(C)(C)O2 (stereo unspecified) | 72 to 74
82 | NC(=O)N1C(=O)C(C(=O)c2cccs2)c2ncc(Cl)cc21 (stereo unspecified) | > 250
83 | CCCCOc1cc2ccc(C(=O)O)cc2cc1OCCCC | 168 to 169
84 | COc1ccc(CCC2COC(Cn3ccnc3)(c3ccc(Cl)cc3Cl)O2)cc1 (stereo unspecified) | 131
85 | CCCCc1nn(-c2ccccc2C(F)(F)F)c(=O)n1Cc1ccc(-c2ccccc2S(N)(=O)=O)cc1 | 74 to 76
86 | CC(=O)c1ccc(-c2ccc(Br)cc2C)cc1 | 84 to 86
87 | Cc1nc(NC(=O)NS(=O)(=O)c2ccccc2[N+](=O)[O-])nc2c1CCC2 | 202 to 205
88 | CCOC(=O)C(C)Oc1ccc(N(C)c2cnc3cc(Cl)c(Cl)cc3n2)cc1 (stereo unspecified) | 79
89 | COc1cc(C=O)cc(Cl)c1Cl | 97 to 98.5
90 | CC1CC(=O)NN=C1c1ccc(NN=C(c2ccc(O)cc2O)c2ccc(O)cc2O)cc1 (stereo unspecified) | 150 to 175
91 | Cc1oc(-c2ccco2)nc1CCOc1ccc(CC2SC(=O)NC2=O)cn1 (stereo unspecified) | 160 to 162
92 | COC(=O)C(Cc1cc(C)c(Oc2ccc(O)c(Cc3ccc(OC)nc3)c2)c(C)c1)NC(C)=O (stereo unspecified) | 186 to 188
93 | CCCCOc1ccc(-c2ncc(C(=O)OCC)c(Cl)n2)cc1 | 79
94 | CCOC(=O)CC1(O)C(=O)Nc2ccc(F)cc21 (stereo unspecified) | 133 to 135
95 | O=S1(=O)NC(C2CCCCC2)Nc2ccc(S(=O)(=O)N3CCOCC3)cc21 (stereo unspecified) | 262 to 264
96 | O=S(=O)(Cc1nc2ccc(Cl)cc2[nH]1)c1ccccn1 | 183 to 186
97 | CC(=O)N(c1cc2occc(=O)c2cc1Oc1ccc(F)cc1F)S(C)(=O)=O | 176 to 178
98 | COC(=O)Cn1c(=O)c(=O)[nH]c2cc(C(F)(F)F)c(-n3cccc3)cc21 | 141 to 142
99 | CC(C)c1n[nH]c2c(NCc3ccc(O)cc3)ncnc12 | 234 to 236
100 | Cc1nccc(N2CCC(O)(C(=O)N3CCN(C(=O)c4ccc(Br)cc4)CC3)CC2)n1 | 114 to 117
101 | COc1cc(N)c(Cl)cc1C(=O)N[C@H]1CCN(Cc2cccnc2)C[C@H]1OC (relative stereo) | 189
